Measurements: ChEMBL document CHEMBL1156444, “Structure-based design, synthesis, evaluation, and crystal structures of transition state analogue inhibitors of inosine monophosphate cyclohydrolase” (J Biol Chem, 2007)

How the values were obtained:
[1] = Inhibition of Escherichia coli GAR transformylase
[2] = molecular target: T1, Trifunctional purine biosynthetic protein adenosine-3 (Homo sapiens, UniProt P22102); test: Inhibition of human recombinant GAR transformylase
T1 sequence (P22102 whole entry): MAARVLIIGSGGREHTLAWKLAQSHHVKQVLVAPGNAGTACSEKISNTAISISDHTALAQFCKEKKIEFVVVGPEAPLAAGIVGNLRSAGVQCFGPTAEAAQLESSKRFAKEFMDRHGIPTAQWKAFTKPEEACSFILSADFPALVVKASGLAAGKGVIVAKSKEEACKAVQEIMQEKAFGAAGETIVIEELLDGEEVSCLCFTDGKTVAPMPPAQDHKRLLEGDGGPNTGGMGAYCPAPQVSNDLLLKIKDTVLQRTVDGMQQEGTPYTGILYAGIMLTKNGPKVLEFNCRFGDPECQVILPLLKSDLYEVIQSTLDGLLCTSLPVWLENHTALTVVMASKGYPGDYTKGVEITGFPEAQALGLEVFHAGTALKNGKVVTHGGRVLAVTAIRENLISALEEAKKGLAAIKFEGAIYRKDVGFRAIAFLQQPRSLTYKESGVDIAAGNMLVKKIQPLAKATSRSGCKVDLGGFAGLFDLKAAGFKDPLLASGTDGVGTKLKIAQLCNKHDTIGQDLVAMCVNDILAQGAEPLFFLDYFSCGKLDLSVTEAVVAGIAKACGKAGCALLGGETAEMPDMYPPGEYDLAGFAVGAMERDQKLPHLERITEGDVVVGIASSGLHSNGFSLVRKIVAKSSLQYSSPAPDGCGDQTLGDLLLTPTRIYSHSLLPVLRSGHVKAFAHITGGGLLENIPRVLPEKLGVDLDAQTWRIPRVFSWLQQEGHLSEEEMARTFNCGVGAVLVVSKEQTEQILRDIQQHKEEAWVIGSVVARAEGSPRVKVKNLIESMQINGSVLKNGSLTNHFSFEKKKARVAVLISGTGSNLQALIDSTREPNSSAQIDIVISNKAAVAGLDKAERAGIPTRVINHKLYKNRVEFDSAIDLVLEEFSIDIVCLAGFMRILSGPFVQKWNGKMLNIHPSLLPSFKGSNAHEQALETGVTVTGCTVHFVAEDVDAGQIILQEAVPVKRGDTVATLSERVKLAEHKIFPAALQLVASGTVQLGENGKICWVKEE

[3] = molecular target: Bifunctional purine biosynthesis protein ATIC (Homo sapiens, UniProt P31939); test: Inhibition of IMPCH activity of human wild-type ATIC
Bifunctional purine biosynthesis protein ATIC, sequence (P31939 whole entry): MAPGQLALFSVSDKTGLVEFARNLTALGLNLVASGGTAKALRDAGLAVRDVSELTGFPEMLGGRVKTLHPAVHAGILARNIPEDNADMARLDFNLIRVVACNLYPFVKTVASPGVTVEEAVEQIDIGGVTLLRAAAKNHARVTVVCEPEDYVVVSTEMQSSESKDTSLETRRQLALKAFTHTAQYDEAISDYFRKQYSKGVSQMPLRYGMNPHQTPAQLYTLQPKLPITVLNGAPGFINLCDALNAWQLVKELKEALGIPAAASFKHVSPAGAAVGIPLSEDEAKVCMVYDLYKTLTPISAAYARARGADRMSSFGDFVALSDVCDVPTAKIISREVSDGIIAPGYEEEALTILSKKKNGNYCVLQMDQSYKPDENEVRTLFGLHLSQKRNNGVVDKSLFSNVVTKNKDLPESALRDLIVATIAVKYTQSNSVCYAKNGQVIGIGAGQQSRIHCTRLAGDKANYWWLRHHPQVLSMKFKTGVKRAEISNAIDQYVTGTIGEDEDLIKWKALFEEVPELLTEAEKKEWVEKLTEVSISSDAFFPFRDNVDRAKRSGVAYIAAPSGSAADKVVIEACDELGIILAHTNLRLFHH

Row | Ki [2] [µM] | Structure (SMILES) | Ki [1] [µM] | Ki [3] [µM]
1 | 4.8 | O=C1NS(=O)(=O)Nc2c1ncn2[C@@H]1O[C@H](COP(=O)(O)O)[C@@H](O)[C@H]1O | > 100 | –
2 | > 100 | O=C1NS(=O)(=O)Nc2c1ncn2[C@@H]1O[C@H](CO)[C@@H](O)[C@H]1O | > 100 | –
3 | – | NC(=O)c1ncn([C@@H]2O[C@H](COP(=O)(O)O)[C@@H](O)[C@H]2O)c1NC=O [FAICAR] | – | 0.4
4 | – | Nc1nc2c(c(=O)[nH]1)C[C@@H](CCc1ccc(C(=O)N[C@@H](CCC(=O)O)C(=O)O)cc1)CN2 [LOMETREXOL] | 0.1 | –

Row | Structure (SMILES) | Ki [2] [µM] | Ki [1] [µM] | Ki [3] [µM]
5 | O=C1NS(=O)(=O)Nc2nc[nH]c21 | > 100 | > 100 | –
